The structures appear in SMILES notation. A value given as a limit tells only on which side of the number the result lay.

Holding throughout (assay type): cell-based
The target of one assay is human TLR7 (Homo sapiens (Human), UniProt Q9NYK1). Nature of the assay: TLR7 inhibition reporter assay (HEK-Blue, SEAP). To be noted: HEK-Blue cells overexpressing human TLR7, gardiquimod 7.5 μM stimulation. In a few lines: (§1)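 After 30 min room-temperature pre-incubation with compound (0.05 nM–50 μM), reporter HEK-Blue lines were activated by ODN2006 5 nM for TLR9, R848 15.9 μM for TLR8 or gardiquimod 7.5 μM for TLR7. SEAP detected after 22 h, 37 °C; inhibition scaled between agonist+DMSO wells and known-inhibitor control.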

For another assay, the target named is human TLR8 (Homo sapiens (Human), UniProt Q9NR97). Put plainly: TLR8 inhibition reporter assay (HEK-Blue, SEAP). As to conditions: HEK-Blue cells overexpressing human TLR8, R848 15.9 μM stimulation. The method, boiled down: as §1
Background: In a reporter assay the amount or activity of a reporter protein is the signal.

In a further assay the target is human TLR9 (Homo sapiens (Human), UniProt Q9NR96). Nature of the assay: TLR9 inhibition reporter assay (HEK-Blue, SEAP). As to conditions: HEK-Blue cells overexpressing human TLR9, ODN2006 5 nM stimulation. The method, boiled down:
as §1

Sequence of human TLR8 (Q9NR97 27-1041): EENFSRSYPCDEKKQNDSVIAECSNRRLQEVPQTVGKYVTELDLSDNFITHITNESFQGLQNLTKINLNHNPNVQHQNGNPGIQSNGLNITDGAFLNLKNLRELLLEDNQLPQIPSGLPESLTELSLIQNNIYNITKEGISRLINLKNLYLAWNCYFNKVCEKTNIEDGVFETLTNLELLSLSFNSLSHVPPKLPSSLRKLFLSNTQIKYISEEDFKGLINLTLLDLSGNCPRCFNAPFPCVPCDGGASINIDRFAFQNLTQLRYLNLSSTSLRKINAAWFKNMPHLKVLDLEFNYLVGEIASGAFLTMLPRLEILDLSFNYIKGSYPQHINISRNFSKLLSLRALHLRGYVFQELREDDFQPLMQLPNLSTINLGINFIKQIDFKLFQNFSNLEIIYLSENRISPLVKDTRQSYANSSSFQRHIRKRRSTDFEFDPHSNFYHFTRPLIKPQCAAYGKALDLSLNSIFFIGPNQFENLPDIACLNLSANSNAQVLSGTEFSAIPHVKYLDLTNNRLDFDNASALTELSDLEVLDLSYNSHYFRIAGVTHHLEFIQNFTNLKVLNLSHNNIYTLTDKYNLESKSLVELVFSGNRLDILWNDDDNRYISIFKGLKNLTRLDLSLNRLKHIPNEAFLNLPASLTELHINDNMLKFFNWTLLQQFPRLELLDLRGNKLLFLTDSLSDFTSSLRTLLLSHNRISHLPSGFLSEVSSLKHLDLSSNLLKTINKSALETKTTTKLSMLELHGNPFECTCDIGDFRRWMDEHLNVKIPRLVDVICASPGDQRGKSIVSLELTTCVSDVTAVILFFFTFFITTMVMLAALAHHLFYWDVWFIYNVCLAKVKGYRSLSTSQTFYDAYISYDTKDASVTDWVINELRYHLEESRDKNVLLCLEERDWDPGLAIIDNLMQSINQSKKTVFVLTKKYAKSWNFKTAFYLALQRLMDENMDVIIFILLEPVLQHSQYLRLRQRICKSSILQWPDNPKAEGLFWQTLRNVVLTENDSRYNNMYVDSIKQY
Sequence of human TLR7 (Q9NYK1 27-1049): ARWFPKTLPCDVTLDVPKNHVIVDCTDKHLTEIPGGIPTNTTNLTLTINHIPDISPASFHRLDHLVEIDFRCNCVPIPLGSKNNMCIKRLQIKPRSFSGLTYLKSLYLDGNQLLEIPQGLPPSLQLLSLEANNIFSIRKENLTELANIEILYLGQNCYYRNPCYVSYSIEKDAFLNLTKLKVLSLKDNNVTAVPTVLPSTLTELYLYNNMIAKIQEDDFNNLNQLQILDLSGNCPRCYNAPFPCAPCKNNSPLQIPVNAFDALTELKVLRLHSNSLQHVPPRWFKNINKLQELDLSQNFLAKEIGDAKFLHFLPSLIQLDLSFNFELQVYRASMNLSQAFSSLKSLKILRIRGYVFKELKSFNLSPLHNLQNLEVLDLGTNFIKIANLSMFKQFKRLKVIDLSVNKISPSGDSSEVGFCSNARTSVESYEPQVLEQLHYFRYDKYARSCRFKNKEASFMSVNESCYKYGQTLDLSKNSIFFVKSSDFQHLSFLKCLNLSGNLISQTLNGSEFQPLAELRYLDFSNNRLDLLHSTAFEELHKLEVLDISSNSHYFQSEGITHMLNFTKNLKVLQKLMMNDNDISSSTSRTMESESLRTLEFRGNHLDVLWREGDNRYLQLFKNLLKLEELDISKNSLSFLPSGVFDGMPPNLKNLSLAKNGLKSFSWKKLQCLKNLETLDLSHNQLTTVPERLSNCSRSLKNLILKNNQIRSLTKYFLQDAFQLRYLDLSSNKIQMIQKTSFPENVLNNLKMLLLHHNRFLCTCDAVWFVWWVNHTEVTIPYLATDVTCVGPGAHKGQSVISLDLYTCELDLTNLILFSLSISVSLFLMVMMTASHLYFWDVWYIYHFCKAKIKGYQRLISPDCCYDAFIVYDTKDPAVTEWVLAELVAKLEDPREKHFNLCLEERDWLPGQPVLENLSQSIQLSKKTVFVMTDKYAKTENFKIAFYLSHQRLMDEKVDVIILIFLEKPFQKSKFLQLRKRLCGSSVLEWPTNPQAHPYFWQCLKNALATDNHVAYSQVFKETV
Sequence of human TLR9 (Q9NR96 26-1032): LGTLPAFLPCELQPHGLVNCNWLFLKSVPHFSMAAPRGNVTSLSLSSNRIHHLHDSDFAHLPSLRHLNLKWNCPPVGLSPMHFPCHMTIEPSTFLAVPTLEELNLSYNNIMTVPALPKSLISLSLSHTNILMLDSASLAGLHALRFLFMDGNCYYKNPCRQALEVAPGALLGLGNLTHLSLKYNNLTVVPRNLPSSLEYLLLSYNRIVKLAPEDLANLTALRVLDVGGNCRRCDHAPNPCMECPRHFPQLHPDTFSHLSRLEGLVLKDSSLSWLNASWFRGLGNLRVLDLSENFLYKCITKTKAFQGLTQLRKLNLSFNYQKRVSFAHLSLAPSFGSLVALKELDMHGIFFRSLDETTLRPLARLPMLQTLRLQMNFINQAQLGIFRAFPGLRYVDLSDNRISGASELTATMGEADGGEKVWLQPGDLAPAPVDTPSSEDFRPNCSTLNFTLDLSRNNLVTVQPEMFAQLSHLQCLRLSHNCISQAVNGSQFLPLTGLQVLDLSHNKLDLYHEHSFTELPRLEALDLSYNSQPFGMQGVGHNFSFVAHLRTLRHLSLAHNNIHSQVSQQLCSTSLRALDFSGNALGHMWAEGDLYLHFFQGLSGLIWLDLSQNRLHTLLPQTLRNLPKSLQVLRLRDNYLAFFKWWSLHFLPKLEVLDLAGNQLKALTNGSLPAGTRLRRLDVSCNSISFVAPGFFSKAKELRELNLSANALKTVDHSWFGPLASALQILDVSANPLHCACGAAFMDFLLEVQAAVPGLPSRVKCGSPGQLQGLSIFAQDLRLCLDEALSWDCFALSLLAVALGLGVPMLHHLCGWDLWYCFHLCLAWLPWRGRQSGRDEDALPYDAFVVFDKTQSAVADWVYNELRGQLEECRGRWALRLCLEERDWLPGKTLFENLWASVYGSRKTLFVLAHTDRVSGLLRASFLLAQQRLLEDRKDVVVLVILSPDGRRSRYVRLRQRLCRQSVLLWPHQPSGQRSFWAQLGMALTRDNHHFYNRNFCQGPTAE

Take `COc1cc(-c2ccc3[nH]c(-c4ccnc5[nH]ncc45)c(C(C)C)c3c2)cnc1OC` [Example 434, 4-(5-(5,6-dimethoxypyridin-3-yl)-3-isopropyl-1H-indol-2-yl)-1H-pyrazolo[3,4-b]pyridine]: the concentration for half-maximal inhibition (IC50) (usually the concentration needed to halve the response being measured) at human TLR7 was 124 nM; at human TLR8, 54 nM; against human TLR9 it was 45200 nM.

Consider `COc1ccc(-c2[nH]c3ccc(-c4cnc(N5CCN(C6CCCC6)CC5)nc4)cc3c2C(C)C)cc1OC` [Example 435, 5-(2-(4-cyclopentylpiperazin-1-yl)pyrimidin-5-yl)-2-(3,4-dimethoxyphenyl)-3-isopropyl-1H-indole], for which the IC50 worked out at 1550 nM on human TLR7, 241 nM against human TLR8 and 3650 nM on human TLR9.

Regarding `COc1ccc(-c2[nH]c3ccc(-c4cnc(N5CCN(C6CCC6)CC5)nc4)cc3c2C(C)C)cc1OC` [Example 436, 5-(2-(4-cyclobutylpiperazin-1-yl)pyrimidin-5-yl)-2-(3,4-dimethoxyphenyl)-3-isopropyl-1H-indole], the half-maximal inhibitory concentration (IC50) at human TLR7 worked out at 1490 nM; against human TLR8, 331 nM; against human TLR9 it was 11100 nM.

Turning to `CC(C)c1c(-c2ccnc3[nH]ncc23)[nH]c2ccc(-c3c[nH]nc3C(F)(F)F)cc12` [Example 438, 4-(3-isopropyl-5-(3-(trifluoromethyl)-1H-pyrazol-4-yl)-1H-indol-2-yl)-1H-pyrazolo[3,4-b]pyridine], the IC50 on human TLR7 came to 947 nM; on human TLR8 it was 10 nM; at human TLR9, 38000 nM.

`CC(C)c1c(-c2ccnc3[nH]ncc23)[nH]c2ccc(-c3noc(C[C@@H]4CCCN4)n3)cc12` [Example 439, (S)-3-(3-isopropyl-2-(1H-pyrazolo[3,4-b]pyridin-4-yl)-1H-indol-5-yl)-5-(pyrrolidin-2-ylmethyl)-1,2,4-oxadiazole]: the IC50 on human TLR7 is 134 nM; on human TLR8 it was 3.3 nM; against human TLR9, 2140 nM.

As for `CCc1c(-c2ccc(OC)c(OC)c2)[nH]c2ccc(-c3noc([C@@H](N)Cc4c[nH]cn4)n3)cc12` [Example 440, (S)-1-(3-(2-(3,4-dimethoxyphenyl)-3-ethyl-1H-indol-5-yl)-1,2,4-oxadiazol-5-yl)-2-(1H-imidazol-4-yl)ethan-1-amine], the half-inhibitory concentration (IC50) stood at 647 nM against human TLR7, 123 nM against human TLR8 and 19900 nM at human TLR9.

Consider `CCc1c(-c2ccc(OC)c(OC)c2)[nH]c2ccc(-c3noc(C4CC(=O)N(C)C4)n3)cc12` (stereo not drawn) [Example 441, 4-(3-(2-(3,4-dimethoxyphenyl)-3-ethyl-1H-indol-5-yl)-1,2,4-oxadiazol-5-yl)-1-methylpyrrolidin-2-one], for which the IC50 was 3290 nM at human TLR7, 356 nM against human TLR8 and more than 50000 nM at human TLR9.

Regarding `CCc1c(-c2ccc(OC)c(OC)c2)[nH]c2ccc(-c3noc([C@H]4CCC[C@@]4(C)N)n3)cc12` [Example 442, (1R,2S)-2-(3-(2-(3,4-dimethoxyphenyl)-3-ethyl-1H-indol-5-yl)-1,2,4-oxadiazol-5-yl)-1-methylcyclopentan-1-amine], the IC50 against human TLR7 worked out at 903 nM; against human TLR8, 90 nM; on human TLR9, 4580 nM.

`CCc1c(-c2ccc(OC)c(OC)c2)[nH]c2ccc(-c3noc(C4CCN(Cc5ccccc5)C4)n3)cc12` (stereo not drawn) [Example 443, 5-(1-benzylpyrrolidin-3-yl)-3-(2-(3,4-dimethoxyphenyl)-3-ethyl-1H-indol-5-yl)-1,2,4-oxadiazole]: the values for the half-maximal inhibitory concentration (IC50) against human TLR7, against human TLR8 and at human TLR9 were 3280 nM, 740 nM and 10300 nM, respectively.

For `CCc1c(-c2ccc(OC)c(OC)c2)[nH]c2ccc(-c3noc(C4CCN(Cc5ccccc5)CC4)n3)cc12` [Example 444, 5-(1-benzylpiperidin-4-yl)-3-(2-(3,4-dimethoxyphenyl)-3-ethyl-1H-indol-5-yl)-1,2,4-oxadiazole], the IC50 came to 3130 nM against human TLR7, 443 nM at human TLR8 and 11200 nM at human TLR9.

Take `CCc1c(-c2ccc(OC)c(OC)c2)[nH]c2ccc(-c3noc(C4CCN(C(C)C)CC4)n3)cc12` [Example 445, 3-(2-(3,4-dimethoxyphenyl)-3-ethyl-1H-indol-5-yl)-5-(1-isopropylpiperidin-4-yl)-1,2,4-oxadiazole]: the IC50 is 338 nM against human TLR7, 37 nM against human TLR8 and 1850 nM against human TLR9.

`CC(C)c1c(-c2ccnc3[nH]ncc23)[nH]c2ccc(-c3noc(C4CCN(C(=O)CN(C)C)CC4)n3)cc12` [Example 446, 2-(dimethylamino)-1-(4-(3-(3-isopropyl-2-(1H-pyrazolo[3,4-b]pyridin-4-yl)-1H-indol-5-yl)-1,2,4-oxadiazol-5-yl)piperidin-1-yl)ethan-1-one]: the 50% inhibitory concentration (IC50) against human TLR7 was 27 nM; against human TLR8 it was 4 nM; on human TLR9 it was 1020 nM.

As to `CCc1c(-c2ccc(OC)c(OC)c2)[nH]c2ccc(-c3noc(CCC4CCNCC4)n3)cc12` [Example 447, 3-(2-(3,4-dimethoxyphenyl)-3-ethyl-1H-indol-5-yl)-5-(2-(piperidin-4-yl)ethyl)-1,2,4-oxadiazole], the figures for the IC50 against human TLR7, against human TLR8 and at human TLR9 were 740 nM, 201 nM and 3460 nM, respectively.

Take `CCc1c(-c2ccnc(C)c2)[nH]c2ccc(-c3noc(CCC4CCNCC4)n3)cc12` [Example 448, 3-(3-ethyl-2-(2-methylpyridin-4-yl)-1H-indol-5-yl)-5-(2-(piperidin-4-yl)ethyl)-1,2,4-oxadiazole]: the IC50 at human TLR7 stood at 327 nM; on human TLR8 it was 50 nM; at human TLR9 it was 1800 nM.

In the case of `CCc1c(-c2ccnc(C)c2)[nH]c2ccc(-c3noc(CCC4CCN(C(C)C)CC4)n3)cc12` [Example 449, 3-(3-ethyl-2-(2-methylpyridin-4-yl)-1H-indol-5-yl)-5-(2-(1-isopropylpiperidin-4-yl)ethyl)-1,2,4-oxadiazole], the figures for the IC50 at human TLR7, on human TLR8 and against human TLR9 were 239 nM, 37 nM and 1360 nM, respectively.

Consider `CCc1c(-c2ccc(OC)c(OC)c2)[nH]c2ccc(-c3noc(C4CCNC4)n3)cc12` (stereo not drawn) [Example 450, 3-(2-(3,4-dimethoxyphenyl)-3-ethyl-1H-indol-5-yl)-5-(pyrrolidin-3-yl)-1,2,4-oxadiazole], for which the IC50 came to 121 nM at human TLR7, 19 nM at human TLR8 and 1690 nM at human TLR9.

As to `CCc1c(-c2ccc(OC)c(OC)c2)[nH]c2ccc(-c3noc(CCOC)n3)cc12` [Example 451, 3-(2-(3,4-dimethoxyphenyl)-3-ethyl-1H-indol-5-yl)-5-(2-methoxyethyl)-1,2,4-oxadiazole], the IC50 on human TLR7 is 3980 nM; against human TLR8, 1290 nM; against human TLR9 it was more than 50000 nM.

Consider `CCc1c(-c2ccc(OC)c(OC)c2)[nH]c2ccc(-c3noc([C@H]4C[C@H]5CC[C@@H](C4)N5)n3)cc12` [Example 452, 5-((1R,3r,5S)-8-azabicyclo[3.2.1]octan-3-yl)-3-(2-(3,4-dimethoxyphenyl)-3-ethyl-1H-indol-5-yl)-1,2,4-oxadiazole], for which the IC50 on human TLR7 is 282 nM; against human TLR8, 52 nM; against human TLR9 it was 1930 nM.

As for `CCc1c(-c2ccnc(C)c2)[nH]c2ccc(-c3noc(CN(C)C)n3)cc12` [Example 453, 1-(3-(3-ethyl-2-(2-methylpyridin-4-yl)-1H-indol-5-yl)-1,2,4-oxadiazol-5-yl)-N,N-dimethylmethanamine], the half-inhibitory concentration (IC50) on human TLR7 stood at 703 nM; at human TLR8 it was 32 nM; against human TLR9, 23200 nM.

In the case of `CCc1c(-c2ccc(OC)c(OC)c2)[nH]c2ccc(-c3noc(CCN(C)C)n3)cc12` [Example 454, 2-(3-(2-(3,4-dimethoxyphenyl)-3-ethyl-1H-indol-5-yl)-1,2,4-oxadiazol-5-yl)-N,N-dimethylethan-1-amine], the half-inhibitory concentration (IC50) on human TLR7 is 306 nM; against human TLR8 it was 19 nM; against human TLR9, 11300 nM.

Take `CCc1c(-c2ccnc(C)c2)[nH]c2ccc(-c3noc([C@H]4CCNC4)n3)cc12` [Example 455, (S)-3-(3-ethyl-2-(2-methylpyridin-4-yl)-1H-indol-5-yl)-5-(pyrrolidin-3-yl)-1,2,4-oxadiazole]: the results for the IC50 on human TLR7, against human TLR8 and at human TLR9 were 2220 nM, 27 nM and 15900 nM, respectively.

For the compound `CCc1c(-c2ccnc(C)c2)[nH]c2ccc(-c3noc(C4CCNC4)n3)cc12` (stereo not drawn) [Example 456, 3-(3-ethyl-2-(2-methylpyridin-4-yl)-1H-indol-5-yl)-5-(pyrrolidin-3-yl)-1,2,4-oxadiazole], the results for the IC50 against human TLR7, against human TLR8 and at human TLR9 were 78 nM, 18 nM and 593 nM, respectively.

With `CCc1c(-c2ccnc(C)c2)[nH]c2ccc(-c3noc(C4CCCNC4)n3)cc12` (stereo not drawn) [Example 457, 3-(3-ethyl-2-(2-methylpyridin-4-yl)-1H-indol-5-yl)-5-(piperidin-3-yl)-1,2,4-oxadiazole], the concentration for half-maximal inhibition (IC50) against human TLR7 was 228 nM; on human TLR8, 11 nM; on human TLR9, 686 nM.

Regarding `CCc1c(-c2ccnc(C)c2)[nH]c2ccc(-c3noc(C4CNC4)n3)cc12` [Example 458, 5-(azetidin-3-yl)-3-(3-ethyl-2-(2-methylpyridin-4-yl)-1H-indol-5-yl)-1,2,4-oxadiazole], the values for the half-maximal inhibitory concentration (IC50) on human TLR7, against human TLR8 and against human TLR9 were 163 nM, 37 nM and 1050 nM, respectively.

`CCc1c(-c2ccc(OC)c(OC)c2)[nH]c2ccc(-c3noc(C4CCNCC4)n3)cc12` [Example 459, 3-(2-(3,4-dimethoxyphenyl)-3-ethyl-1H-indol-5-yl)-5-(piperidin-4-yl)-1,2,4-oxadiazole]: the half-inhibitory concentration (IC50) was 306 nM against human TLR7, 19 nM against human TLR8 and 2180 nM against human TLR9.

Values taken from patent publication US11420958B2, “Aryl and heteroaryl substituted indole compounds” (BRISTOL-MYERS SQUIBB COMPANY, priority 2017, dated 2022).
